Assay results reported in US20080166403A1, “Long circulating liposome” (Industrial Technology Research Institute, priority 2003, published 2008).

Experiment: Circulation time of liposomes in the body: Doxorubicin concentration in rat blood by a pharmacokinetics method with HPLC analysis
Type: in vivo
Conditions: 8 hours after injection, FIG. 1
Procedure: In this example, the concentration of Doxorubicin in the blood is determined by a pharmacokinetics method, and HPLC analysis is performed subsequently.
Doxo. is compared with DO503 liposomes (Example 1) and DO502 liposomes (Example 2), wherein Doxo. represents the free doxorubicin solution. […] Especially for DO503, it even exists in rat blood 48 hours after injection.

SMILES: COc1cccc2c1C(=O)c1c(O)c3c(c(O)c1C2=O)C[C@@](O)(C(=O)CO)C[C@@H]3O[C@H]1C[C@H](N)[C@H](O)[C@H](C)O1 [Doxo., doxorubicin]
- Doxorubicin concentration in rat blood: almost no Doxorubicin concentration detected
